Measurements as given in patent publication US20210255193A1, “LYSINE REACTIVE PROBES AND USES THEREOF” (The Scripps Research Institute, priority 2017, published 2021).
Values belong to the compound of their own block, whether it stands above or below them.

Key:
Experiment in all cases: competitive isoTOP-ABPP
Format in all cases: binding
[1] = target: T1, PFKP 6-phosphofructokinase type C (Homo sapiens, UniProt Q01813); design: key to isoTOP-ABPP reactivity ratio at lysine Q01813_K688: R = MS1 peak area ratio, DMSO (heavy) / compound-treated (light); details: for isoTOP-ABPP ratio (R) at liganded lysine Q01813_K688: sol, 231
T1 construct: isoTOP-ABPP experiments performed in cell lysates (in vitro); endogenous in cells
T1 sequence (Q01813 1-784): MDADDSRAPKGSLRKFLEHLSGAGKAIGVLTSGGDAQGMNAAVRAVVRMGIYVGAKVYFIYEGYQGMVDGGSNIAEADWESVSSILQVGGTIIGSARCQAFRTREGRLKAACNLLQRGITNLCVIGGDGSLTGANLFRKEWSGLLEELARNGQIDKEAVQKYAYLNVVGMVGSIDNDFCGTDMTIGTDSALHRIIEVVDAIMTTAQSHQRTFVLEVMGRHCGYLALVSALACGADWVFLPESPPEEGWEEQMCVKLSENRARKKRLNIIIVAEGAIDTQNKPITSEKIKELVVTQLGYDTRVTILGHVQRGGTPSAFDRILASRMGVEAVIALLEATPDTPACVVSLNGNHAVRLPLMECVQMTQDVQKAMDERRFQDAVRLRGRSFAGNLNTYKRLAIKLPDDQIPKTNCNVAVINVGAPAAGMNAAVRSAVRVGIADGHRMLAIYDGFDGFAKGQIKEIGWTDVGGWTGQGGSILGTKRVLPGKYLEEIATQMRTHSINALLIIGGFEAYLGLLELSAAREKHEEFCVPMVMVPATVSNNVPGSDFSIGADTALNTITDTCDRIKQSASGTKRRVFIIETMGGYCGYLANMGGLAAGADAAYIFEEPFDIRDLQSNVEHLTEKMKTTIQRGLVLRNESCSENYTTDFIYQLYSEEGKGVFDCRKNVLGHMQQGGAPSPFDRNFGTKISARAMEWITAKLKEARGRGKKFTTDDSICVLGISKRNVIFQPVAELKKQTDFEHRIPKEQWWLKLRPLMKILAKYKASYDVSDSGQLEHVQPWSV
Description: (§1) In vitro covalent fragment treatment for isoTOP-ABPP. All compounds were made up as solutions in DMSO (100×) and were used at a final concentration of 50 μM for activated esters and 100 μM for guanidinylating agents. For each profiling sample, 0.5 ml of lysate was treated with 5 μl of the 100× compound stock solution or 5 μl of DMSO. Samples were treated with activated esters for
(§2) STP-alkyne labeling and click chemistry. For concentration-dependent reactivity measurements by isoTOP-ABPP, 0.5 ml proteome aliquots were treated at ambient temperature with 1 mM STP-alkyne 1 (5 μl of 100 mM stock in DMSO) and 0.1 mM STP alkyne 1 (5 μl of 10 mM stock in DMSO), respectively. For competitive isoTOP-ABPP, after in vitro fragment treatment (detailed above), the samples were labeled for 1 h at ambient temperature with 0.1 mM STP-alkyne 1 (5 μl of 10 mM stock in DMSO). Samples were conjugated by copper-mediated azide-alkyne cycloaddition (CuAAC) to either the light (1 mM STP-alkyne or fragment treated) or heavy (0.1 mM STP-alkyne or DMSO treated) TEV tags (10 μl of 5 mM stocks in DMSO, final concentration=100 μM) using tris(2-carboxyethyl)phosphine hydrochloride
(§3) R value calculation and processing. The ratios of light and heavy MS1 peaks for each unique peptide were quantified with a CIMAGE software using default parameters (3 MS1 acquisitions per peak and signal to noise threshold set to 2.5). For reactivity measurements by isoTOP-ABPP, the R value was calculated from the ratio of MS1 peak areas, comparing the 1 mM STP alkyne sample (light TEV tag) with the 0.1 mM STP alkyne sample (heavy TEV tag). For competitive isoTOP-ABPP, the R value was calculated from the ratio of MS1 peak areas, comparing the DMSO treated sample (heavy TEV tag) with the compound treated sample (light TEV tag). […] Ratios for unique peptide entries are calculated for each experiment; overlapping peptides with the same modified lysine (for example, different charge states, MudPIT chromatographic steps or tryptic termini) are grouped together and the median ratio is reported as the final ratio (R). The peptide ratios reported by CIMAGE were further filtered to ensure the removal or correction of low-quality ratios in each individual data set. The quality filters applied were the following: removal of half tryptic peptides; for ratios with high standard deviations from the median (90% of the median or above) the lowest ratio was taken instead of the median; removal of peptides with R=20 and only a single MS2 event triggered during the elution of the parent ion; manual annotation of all the peptides with ratios of 20, removing any peptides with low quality elution profiles that remained after the previous curation steps (only done for competitive isoTOP-ABPP).
(§4) Cross-data processing for fragment screening. For compound treated samples, biological replicates of the same condition were averaged, if the standard deviation was below 60% of the mean; otherwise, for lysines with at least one R value <4 for a particular compound, the lowest value of the ratio set was taken. For lysines, where all R values for a particular compound were ≥4, the average was reported. For peptides containing several possible modified lysines, the lysine with the highest number of quantification events was used for analysis and the remaining, redundant peptides were reported as alternative modification sites. Peptides included in the aggregate dataset (those used for further bioinformatics and statistical analyses) were required to have been quantified in 2 experiments for competitive isoTOP-ABPP. Lysines were categorized as liganded, if they had at least one ratio R≥4 (hit fragments). For liganded lysines with R=20 for all liganding events, lysines were required to have been quantified with R=20 in two separate experiments and were further required to have been quantified with R<20 in one additional experiment.

[2] = target: T2, POLR2L DNA-directed RNA polymerases I, II, and III subunit (Homo sapiens, UniProt P62875); details: for isoTOP-ABPP ratio (R) at liganded lysine P62875_K67: sol, 231
T2 construct: isoTOP-ABPP experiments performed in cell lysates (in vitro); endogenous in cells; host or cells: soluble proteome of human cancer cell lines (MDA-MB-231, Ramos, Jurkat)
Description: as §1, §2, §3, §4

CUL2 Cullin-2 = target: T3, CUL2 Cullin-2 (Homo sapiens, UniProt Q13617); details: for isoTOP-ABPP ratio (R) at liganded lysine Q13617_K489: sol, 231
T3 construct: isoTOP-ABPP experiments performed in cell lysates (in vitro); endogenous in cells; host or cells: soluble proteome of human cancer cell lines (MDA-MB-231, Ramos, Jurkat)
Description: as §1, §2, §3, §4

[3] = target: T4, DYNC1H1 Cytoplasmic dynein 1 heavy chain 1 (Homo sapiens, UniProt Q14204); details: for isoTOP-ABPP ratio (R) at liganded lysine Q14204_K1649: sol, 231
T4 construct: isoTOP-ABPP experiments performed in cell lysates (in vitro); endogenous in cells; host or cells: soluble proteome of human cancer cell lines (MDA-MB-231, Ramos, Jurkat)
Description: as §1, §2, §3, §4

[4] = target: T5, UCHL5 Ubiquitin carboxyl-terminal hydrolase isozyme L5 (Homo sapiens, UniProt Q9Y5K5); details: for isoTOP-ABPP ratio (R) at liganded lysine Q9Y5K5_K323: sol, 231
T5 construct: endogenous in cells; host or cells: MDA-MB-231 (soluble fraction of lysate)
T5 sequence (Q9Y5K5 1-329): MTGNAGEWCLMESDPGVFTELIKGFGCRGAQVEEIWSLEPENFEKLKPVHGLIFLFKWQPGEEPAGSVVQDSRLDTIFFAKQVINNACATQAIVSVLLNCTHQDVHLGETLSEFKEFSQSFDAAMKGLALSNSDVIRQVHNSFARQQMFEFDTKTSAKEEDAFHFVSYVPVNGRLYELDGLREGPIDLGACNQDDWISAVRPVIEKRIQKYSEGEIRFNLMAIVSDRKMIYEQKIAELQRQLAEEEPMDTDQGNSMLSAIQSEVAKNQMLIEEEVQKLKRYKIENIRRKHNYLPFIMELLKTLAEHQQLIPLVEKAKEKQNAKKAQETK
Description: as §1, §2, §3, §4

T3 sequence (Q13617 whole entry): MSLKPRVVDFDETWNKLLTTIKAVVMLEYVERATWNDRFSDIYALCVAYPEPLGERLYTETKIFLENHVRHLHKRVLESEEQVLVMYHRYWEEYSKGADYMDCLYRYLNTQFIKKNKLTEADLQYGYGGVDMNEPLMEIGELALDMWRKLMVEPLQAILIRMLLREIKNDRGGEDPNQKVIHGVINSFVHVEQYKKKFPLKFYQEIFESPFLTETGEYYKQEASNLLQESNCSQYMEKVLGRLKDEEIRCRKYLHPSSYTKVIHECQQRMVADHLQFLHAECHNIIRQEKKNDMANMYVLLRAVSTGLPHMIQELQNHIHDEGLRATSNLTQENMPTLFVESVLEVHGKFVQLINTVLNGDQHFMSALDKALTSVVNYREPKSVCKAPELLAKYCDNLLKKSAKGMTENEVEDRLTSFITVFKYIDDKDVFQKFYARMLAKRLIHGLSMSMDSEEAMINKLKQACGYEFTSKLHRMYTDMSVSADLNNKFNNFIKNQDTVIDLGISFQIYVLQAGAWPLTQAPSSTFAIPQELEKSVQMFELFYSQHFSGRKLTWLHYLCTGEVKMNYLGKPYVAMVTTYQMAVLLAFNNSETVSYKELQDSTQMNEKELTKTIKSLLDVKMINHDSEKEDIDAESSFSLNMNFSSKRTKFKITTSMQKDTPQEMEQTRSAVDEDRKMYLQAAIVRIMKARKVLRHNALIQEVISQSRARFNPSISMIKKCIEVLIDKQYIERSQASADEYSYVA

SMILES: O=C(Oc1ccc([N+](=O)[O-])cc1[N+](=O)[O-])c1ccc2ccccc2n1 [fragment 35, 2,4-Dinitrophenyl quinoline-2-carboxylate]
isoTOP-ABPP ratio (R) at liganded lysine Q01813_K688 ([1]; 50 uM, in vitro): 3.3
isoTOP-ABPP ratio (R) at liganded lysine P62875_K67 ([2]; 50 uM, in vitro): 0.9
isoTOP-ABPP ratio (R) at liganded lysine Q13617_K489 (CUL2 Cullin-2; 50 uM, in vitro): 0.9
isoTOP-ABPP ratio (R) at liganded lysine Q14204_K1649 ([3]; 50 uM, in vitro): 1.0
isoTOP-ABPP ratio (R) at liganded lysine Q9Y5K5_K323 ([4]; 50 uM, in vitro): 1.0

isoTOP-ABPP reactivity ratio at lysine Q01813_K688 ([1]; 50 uM, 231 sol, in vitro): 2.5
isoTOP-ABPP reactivity ratio at lysine P62875_K67 ([2]; 50 uM, 231 sol, in vitro): 0.9
isoTOP-ABPP reactivity ratio at lysine Q13617_K489 (CUL2 Cullin-2; 50 uM, 231 sol, in vitro): 0.9
isoTOP-ABPP reactivity ratio at lysine Q14204_K1649 ([3]; 50 uM, 231 sol, in vitro): 1.3
isoTOP-ABPP reactivity ratio at lysine Q9Y5K5_K323 ([4]; 50 uM, 231 sol, in vitro): 0.8
SMILES: O=C(Oc1c(F)c(F)c(F)c(F)c1F)C1CCN(C(=O)OCc2ccccc2)CC1 [fragment 24, 1-Benzyl 4-(pentafluorophenyl) piperidine-1,4-dicarboxylate]

blockade of probe 1 labeling of K688 ([1]; PFKP K688): completely blocked
R value (DMSO/fragment) for probe 1 labeling ([1]; Q01813_K688, 50 uM, 231 sol, in vitro): 20.0
R value (DMSO/fragment) for probe 1 labeling ([2]; P62875_K67, 50 uM, 231 sol, in vitro): 0.9
R value (DMSO/fragment) for probe 1 labeling (CUL2 Cullin-2; Q13617_K489, 50 uM, 231 sol, in vitro): 0.8
R value (DMSO/fragment) for probe 1 labeling ([3]; Q14204_K1649, 50 uM, 231 sol, in vitro): 1.0
R value (DMSO/fragment) for probe 1 labeling ([4]; Q9Y5K5_K323, 50 uM, 231 sol, in vitro): 0.9
SMILES: O=C(Oc1c(F)c(F)c(F)c(F)c1F)C(c1ccccc1)c1ccccc1 [fragment 20, Pentafluorophenyl 2,2-diphenylacetate]

isoTOP-ABPP ratio, lysine Q01813_K688 ([1]; 100 uM_231_sol_in vitro): 18.2
isoTOP-ABPP ratio, lysine P62875_K67 ([2]; 100 uM_231_sol_in vitro): 1.0
isoTOP-ABPP ratio, lysine Q13617_K489 (CUL2 Cullin-2; 100 uM_231_sol_in vitro): 1.0
isoTOP-ABPP ratio, lysine Q14204_K1649 ([3]; 100 uM_231_sol_in vitro): 1.3
isoTOP-ABPP ratio, lysine Q9Y5K5_K323 ([4]; 100 uM_231_sol_in vitro): 2.2
SMILES: CC(C)(C)OC(=O)N=C(NC(=O)OC(C)(C)C)n1cccn1 [fragment 50, reference compound]

SMILES: O=C(Oc1ccc([N+](=O)[O-])cc1[N+](=O)[O-])c1ccccc1Nc1cccc(C(F)(F)F)c1 [fragment 40, 2,4-Dinitrophenyl 2-((3-(trifluoromethyl)phenyl)amino)benzoate]
isoTOP-ABPP ratio (R) at liganded lysine Q01813_K688 ([1]; 50 uM, in vitro): 1.0
isoTOP-ABPP ratio (R) at liganded lysine P62875_K67 ([2]; 50 uM, in vitro): 1.0
isoTOP-ABPP ratio (R) at liganded lysine Q13617_K489 (CUL2 Cullin-2; 50 uM, in vitro): 20.0
isoTOP-ABPP ratio (R) at liganded lysine Q14204_K1649 ([3]; 50 uM, in vitro): 0.8
isoTOP-ABPP ratio (R) at liganded lysine Q9Y5K5_K323 ([4]; 50 uM, in vitro): 1.0

SMILES: N#Cc1ccc(C(=O)Oc2ccc([N+](=O)[O-])cc2[N+](=O)[O-])cc1 [fragment 44, 2,4-Dinitrophenyl 4-cyanobenzoate]
isoTOP-ABPP ratio, lysine Q01813_K688 ([1]; 50 uM_231_sol_in vitro): 4.2
isoTOP-ABPP ratio, lysine P62875_K67 ([2]; 50 uM_231_sol_in vitro): 1.0
isoTOP-ABPP ratio, lysine Q13617_K489 (CUL2 Cullin-2; 50 uM_231_sol_in vitro): 0.8
isoTOP-ABPP ratio, lysine Q14204_K1649 ([3]; 50 uM_231_sol_in vitro): 1.3
isoTOP-ABPP ratio, lysine Q9Y5K5_K323 ([4]; 50 uM_231_sol_in vitro): 0.9

SMILES: O=C(ON1C(=O)CCC1=O)c1cc(C(F)(F)F)cc(C(F)(F)F)c1 [fragment 46, 3,5-Bis(trifluoromethyl)benzoic acid NHS ester]
isoTOP-ABPP ratio, lysine Q01813_K688 ([1]; 50 uM_231_sol_in vitro): 1.7
isoTOP-ABPP ratio, lysine P62875_K67 ([2]; 50 uM_231_sol_in vitro): 1.0
isoTOP-ABPP ratio, lysine Q13617_K489 (CUL2 Cullin-2; 50 uM_231_sol_in vitro): 1.0
isoTOP-ABPP ratio, lysine Q14204_K1649 ([3]; 50 uM_231_sol_in vitro): 1.3
isoTOP-ABPP ratio, lysine Q9Y5K5_K323 ([4]; 50 uM_231_sol_in vitro): 1.0

SMILES: O=C(Oc1ccc([N+](=O)[O-])cc1[N+](=O)[O-])c1ccc(Oc2ccccc2)cc1 [fragment 39, 2,4-Dinitrophenyl 4-phenoxybenzoate]
isoTOP-ABPP ratio (R) at liganded lysine Q01813_K688 ([1]; 50 uM, in vitro): 1.0
isoTOP-ABPP ratio (R) at liganded lysine P62875_K67 ([2]; 50 uM, in vitro): 0.9
isoTOP-ABPP ratio (R) at liganded lysine Q13617_K489 (CUL2 Cullin-2; 50 uM, in vitro): 20.0
isoTOP-ABPP ratio (R) at liganded lysine Q14204_K1649 ([3]; 50 uM, in vitro): 1.0
isoTOP-ABPP ratio (R) at liganded lysine Q9Y5K5_K323 ([4]; 50 uM, in vitro): 0.9

isoTOP-ABPP reactivity ratio at lysine Q01813_K688 ([1]; 50 uM, 231 sol, in vitro): 1.3
isoTOP-ABPP reactivity ratio at lysine P62875_K67 ([2]; 50 uM, 231 sol, in vitro): 1.0
isoTOP-ABPP reactivity ratio at lysine Q13617_K489 (CUL2 Cullin-2; 50 uM, 231 sol, in vitro): 1.0
isoTOP-ABPP reactivity ratio at lysine Q14204_K1649 ([3]; 50 uM, 231 sol, in vitro): 1.0
isoTOP-ABPP reactivity ratio at lysine Q9Y5K5_K323 ([4]; 50 uM, 231 sol, in vitro): 1.2
SMILES: CCn1cc(C(=O)Oc2c(F)c(F)c(F)c(F)c2F)c(=O)c2ccc(C)nc21 [fragment 28, Pentafluorophenyl 1-ethyl-7-methyl-4-oxo-1,4-dihydro-1,8-naphthyridine-3-carboxylate]
